Experiments:
[1] = system: hair cells in rat organ of Corti explant; conditions: Compound I 0.05 pM, pretreatment at plating, cisplatin exposure day 2 to day 4; untreated 17%
hair cells = experiment: Intramiddle ear neomycin-induced ototoxicity, compound given systemically (subcutaneous), hair cell loss; format: in vivo, guinea pig; conditions: 10 mg s.c. at day 0, 2 and 7
Procedure: Twenty guinea pigs were treated either with sensorineurotrophic compound or vehicle prior to administration of the ototoxin. Ten of the guinea pigs were subcutaneously injected with freshly made sensorineurotrophic compound solution. On the day of injection, 100 mg of the sensorineurotrophic compound was dissolved in 1 ml of ethanol, then 20% of the Intralipids solution was added to make a final volume of 3 ml. The final sensorineurotrophic compound concentration was 10 mg/0.3 ml. Each animal was subcutaneously injected with 0.3 ml of the sensorineurotrophic compound solution at day 0, day 2 and day 7. Another 10 animals were subcutaneously injected with 0.3 ml of the vehicle (20% Intralipids), individually at day 0, day 2 and day 7.
At day 2, guinea pigs used in this study were administered neomycin or neomycin vehicle in the middle ear.
Animals were anesthetized with intramuscular injection of a mixture of ketamine (80 mg/kg) and xylazine (4 mg/kg). Through a post-auricular incision, the right bulla was identified. A hole was drilled to open the middle ear cavity (care was taken not to injure the tympanic annulus or ossicles). A piece of gelfoam (˜2 mm^3) was soaked with neomycin solution (fresh made at a concentration of 50 mg/ml) and was inserted into the round window niche. The remaining neomycin solution (˜100 μl) was then injected into the middle ear cavity. […]

outer hair cells (OHC) = experiment: Intramiddle ear neomycin-induced ototoxicity, compound given into the middle ear, outer hair cell loss; format: in vivo, guinea pig; conditions: for hair cells (protected) after neomycin: 5 mg neomycin, 14 days after second surgery
Procedure: Twenty guinea pigs used in this study were divided into two groups: 10 animals received 10 ng and 10 received 1 ng of the sensorineurotrophic compound.
Sensorineurotrophic compound stock A: A stock solution of sensorineurotrophic compound at 1 mg/10 ml in 100% ethanol was prepared and then diluted and mixed in Intralipid at 10 ng/100 μl.
Sensorineurotrophic compound stock B: A stock solution of sensorineurotrophic compound at 1 mg/100 ml in 100% ethanol was prepared and then diluted and mixed in 20% Intralipid at 1 ng/100 μl.
Animals were anesthetized with an intramuscular injection of a mixture of ketamine (80 mg/kg) and xylazine (4 mg/kg). Through a post-auricular incision, the right bulla was identified. A hole was drilled to open the middle ear cavity (care was taken not to injure the tympanic annulus or ossicles). A piece of gelfoam (˜2 mm^3) soaked with the sensorineurotrophic compound solution was inserted into the round window niche. The remaining sensorineurotrophic compound solution (˜100 μl) then was injected into the middle ear cavity. In the 10 ng dose group, 100 μl of sensorineurotrophic compound stock A was administered; and in the 1 ng dose group, 100 μl of sensorineurotrophic compound stock B was administered to the middle ear cavity. The hole was covered with a piece of clear plastic sheet which was stuck on the skull with a superglue. The incision was closed with clips. The same procedure was performed at the left bulla, but 100 μl of vehicle solution instead of sensorineurotrophic compound solution was administered. The animals were maintained in the prone position until they woke up to ensure filling of the middle ear cavity.
After two days, the animals received a second middle ear administration of sensorineurotrophic compound or vehicle together with neomycin. Solutions were prepared for the two groups of animals as follows:
Solution A: Neomycin was dissolved in sensorineurotrophic compound stock A described above. The final concentration of neomycin was 5 mg and the sensorineurotrophic compound concentration was 10 ng in a 100 μl vehicle solution.
Solution B: Neomycin was dissolved in sensorineurotrophic compound stock B described above. The final concentration of neomycin was 5 mg and the concentration of sensorineurotrophic compound was 1 ng in a 100 μl vehicle solution.
Solution C: Neomycin was dissolved in 20% Intralipid to a final concentration of 5 mg in 100 μl vehicle.
The plastic cover sheet on the bulla window was removed and the middle ear cavity was exposed. The old sensorineurotrophic compound or vehicle was sucked off and the old gelfoam was removed from the round window niche. A piece of gelfoam with fresh stock solution containing sensorineurotrophic compound and neomycin was administered to the round window niche, and the remaining solution (˜100 μl, solution A for the 10 ng dose group and solution B for the 1 ng dose group, respectively) was injected into the middle ear cavity of the right bulla.
Solution C (100 μl) was administered to the left ear for both groups in the same way.
Fourteen days after the second surgery, animals were perfused transcardially with a PBS flush followed by a fixative of 4% paraformaldehyde in 0.1M PBS. Immediately following the perfusion, the temporal bone was removed from the head. The bulla was opened and the cochlea was exposed. The apex was opened and the membrane of the round and oval windows was punched. The fixative solution was gently infused into the perilymphatic space through the apex hole and then allowed to flow out from windows. Then the cochleae were post-fixed in the same fixative solution for at least one day.
To identify and count hair cells in the organ of Corti, a direct immunostaining method was used to label the actin present naturally in the stereocilia bundles of the hair cells. The cochlea was dissected and the perilymphatic space was fully exposed. […]

## CCC(C)(C)C(=O)C(=O)N1CCC[C@H]1C(=O)OCCCc1cccnc1 [Compound I]
[1]
  surviving hair cells: 41.4%
Hair cells; 5 mg neomycin middle ear at day 2, day 16
  difference in the loss of hair cells between vehicle and treated animals: ~31%
Hair cells; 5 mg neomycin middle ear, vehicle animals about 75%
  hair cell loss: about 45%
Outer hair cells (OHC); 1 ng in the middle ear
  hair cells (protected) after neomycin: ~70%
Outer hair cells (OHC); 1 ng intramiddle ear, turn-1, n = 7
  Neomycin-induced OHC Loss (%), Right (Treated), mean ± SEM: 8.85 ± 1.47%
Outer hair cells (OHC); 1 ng intramiddle ear, turn-2, n = 7
  Neomycin-induced OHC Loss (%), Right (Treated), mean ± SEM: 4.01 ± 0.53%
Outer hair cells (OHC); 1 ng intramiddle ear, turn-3, n = 7
  Neomycin-induced OHC Loss (%), Right (Treated), mean ± SEM: 0.92 ± 0.10%
Outer hair cells (OHC); 1 ng intramiddle ear, turn-4, n = 7
  Neomycin-induced OHC Loss (%), Right (Treated), mean ± SEM: 1.67 ± 1.25%
Outer hair cells (OHC); 1 ng intramiddle ear, whole cochlea, n = 7
  Neomycin-induced OHC Loss (%), Right (Treated), mean ± SEM: 3.86 ± 0.37%
Outer hair cells (OHC); 10 ng in the middle ear
  hair cells (protected) after neomycin: around 75%
Outer hair cells (OHC); 10 ng intramiddle ear, turn-1, n = 9
  Neomycin-induced OHC Loss (%), Right (Treated), mean ± SEM: 15.47 ± 6.05%
Outer hair cells (OHC); 10 ng intramiddle ear, turn-2, n = 9
  Neomycin-induced OHC Loss (%), Right (Treated), mean ± SEM: 13.93 ± 10.75%
Outer hair cells (OHC); 10 ng intramiddle ear, turn-3, n = 9
  Neomycin-induced OHC Loss (%), Right (Treated), mean ± SEM: 11.64 ± 10.85%
Outer hair cells (OHC); 10 ng intramiddle ear, turn-4, n = 9
  Neomycin-induced OHC Loss (%), Right (Treated), mean ± SEM: 4.69 ± 2.85%
Outer hair cells (OHC); 10 ng intramiddle ear, whole cochlea, n = 9
  Neomycin-induced OHC Loss (%), Right (Treated), mean ± SEM: 11.44 ± 7.27%
Outer hair cells (OHC); 10 ng or 1 ng in the middle ear, neomycin
  protection of hair cells against ototoxicity, in words: protect completely hair cells against ototoxicity
Outer hair cells (OHC); all animals at 1 ng, all but one at 10 ng, neomycin and vehicle: almost complete loss
  loss of hair cells, in words (FIGS. 4A and 4B): very minimal loss of hair cells
